In EP4799624A2 (priority 2021, dated 2023):

Test: in vivo
Settings: mouse, po

Cc1c(-c2ccc(O)cc2)n(Cc2ccc(OCCN3CCCCC3)cc2)c2ccc(O)cc12 [Pipendoxifene, 2-(4-hydroxyphenyl)-3-methyl-1-[[4-(2-piperidin-1-ylethoxy)phenyl]methyl]indol-5-ol]
NOAEL: ≥ 750 mg/kg/day
